pEC50, pIC50: −log10 of the molar value.
Columns and labels:
[1] = species on record: Rattus norvegicus; experiment: Agonist activity tested in [Ca2+] -influx assay by using neonatal rat cultured spinal sensory neurons; assay type: functional
[2] = species on record: Rattus norvegicus; experiment: Antagonist activity tested in [Ca2+] -influx assay by using neonatal rat cultured spinal sensory neurons; assay type: functional

Compound	pEC50 [1]	pIC50 [2]
COc1cc(C2CCCN2/C(S)=N/CCc2ccccc2)ccc1O (stereo not given)	< 4.00	< 4.00
Oc1ccc(CCC2CCCN2/C(S)=N/CCc2ccccc2)cc1O (stereo not given)	< 4.00	4.26
COc1cc(CCC2CCCN2/C(S)=N/CCc2ccccc2)ccc1O (stereo not given)	< 4.00	5.52

Next, values leading:

pEC50 [1]	pIC50 [2]	Compound
< 4.00	< 4.00	Oc1ccc(C2CCCN2/C(S)=N/CCc2ccccc2)cc1O (stereo not given)
< 4.00	6.22	Oc1cc2c(cc1O)CN(C(=S)NCCc1ccc(Cl)cc1)CCC2 [CAPSAZEPINE]

From ChEMBL document CHEMBL1136259, “Synthesis of 2-substituted-pyrrolidinethiourea derivatives and their antagonist effect on vanilloid receptor” (Bioorg Med Chem Lett, 2003)
